Reference: a melting point compilation (Tetko et al.)

| melting point [°C] | SMILES |
| --- | --- |
| 192 | O=C(O)C[C@@H](NC(=O)OCC1c2ccccc2-c2ccccc21)c1ccc(Br)cc1 |
| 169 to 171 | c1cc(NNc2cccc(-n3cccn3)c2)cc(-n2cccn2)c1 |
| 168 to 169 | O=C(C=Cc1ccc(-c2ccccc2[N+](=O)[O-])o1)c1ccco1 |
| 20.5 | O=C(CC(=O)C(F)(F)F)c1ccco1 |
| 93 to 94 | O=Cc1ccc(OCc2ccccc2)c(Cl)c1 |
| 295 | NC(=O)c1nn(-c2ccccc2)c2ncnc(N)c12 |
| 180 | O=C(O)c1cc2sccc2[nH]1 |
| 77 | COC(=O)c1cc(I)ccc1O |
| 132 to 139 | CCOC(=O)C1=C(C)NC(C)=C(C(=O)OCC)C1C |
| 100 | C=CC(=O)Oc1c(Br)cc(Cl)c2cccnc12 |
| 86 to 88 | O=C(Cl)c1cc(-c2ccccc2)on1 |
| 127 to 133 | O=C(C=Cc1ccccc1)n1ccnc1 |
| 118 to 119 | CC(=O)Nc1ccccc1C#Cc1ccccc1 |
| 103 | Nc1ccc2ccccc2c1N=Nc1ccccc1 |
| 158 to 160 | CC1=C(C(=O)OCc2ccccc2)C(c2ccc3c(c2)OCO3)NC(=O)N1 (configuration not stated) |
| 120 | C=C(Br)CC(NC(=O)OCC1c2ccccc2-c2ccccc21)C(=O)O (configuration not stated) |
| 186 to 188 | O=C(O)c1csc(-c2ccc(C(F)(F)F)cc2)n1 |
| 122 to 124 | Cc1nc(-c2ccccc2)sc1C(=O)Cl |
| 239 to 241 | COC(=O)C1=C(C)NC(=O)NC1c1ccc2c(c1)OCO2 (configuration not stated) |

| melting point [°C] | SMILES |
| --- | --- |
| 181 to 184 | CSCCC(NC(=O)c1ccc(C(F)(F)F)cc1)C(=O)NN (configuration not stated) |
| 30 | O=C(Cl)c1cccc(Cl)c1Cl |
| 127 to 128 | CN(C)c1ccc(C=C/C(=N\Nc2ccccc2)c2ccccc2)cc1 |
| 56 to 58 | CC(C)(C)OC(=O)NCc1ncccc1F |
| 79 | CC(O)CCc1ccc2c(c1)NC(C)CC2 (configuration not stated) |
| 90 | c1ccc(N=Nc2ccc(Nc3ccccc3)cc2)cc1 |
| 86 to 88 | CSc1ncc(C=O)n1Cc1ccccc1 |
| 200 to 202 | CCCC(=O)c1cc2cc(Br)cc(Br)c2oc1=O |
| > 300 | O=[N+]([O-])c1ccccc1N1CSc2nnc(-c3ccccc3)n2C1 |
| 71 | Cc1cc(C)n(CN(Cc2ccccc2)Cn2nc(C)cc2C)n1 |
| 61 to 63 | O=C=Nc1ccc(OCc2ccccc2)cc1 |
| 115 to 116 | O=C1c2ccccc2C(=O)C1(Cl)c1ccccc1 |
| 174 to 178 | N#Cc1coc2ccccc2c1=O |
| 355 | CC1=NN(c2ccccc2)C(=O)C1C1C(=O)N(c2ccccc2)N=C1C (configuration not stated) |
| 407 | O=C(O)c1ccc2c(c1)C(=O)c1cc(C(=O)O)ccc1-2 |
| 180 | O=C1OC(c2ccccc2)=NC1=Cc1ccc(Cl)cc1Cl |
| 135 | CCOC(=O)C1=C(C)NC(C)=C(C(=O)OCC)C1c1ccc2c(c1)OCO2 |
| 178 to 179 | COc1cccc(/N=C(\C)c2c(O)c3ccccc3n(-c3ccccc3)c2=O)c1 |
| 175 | O=C(Oc1cccc(N=[N+]([O-])c2cccc(OC(=O)c3ccccc3)c2)c1)c1ccccc1 |

| melting point [°C] | SMILES |
| --- | --- |
| 156 | Clc1ccc(/C=C(\Oc2ccc(Cl)cc2Cl)c2nc3ccccc3s2)cc1 |
| 185 | O=C1C(c2ccccc2)=Nc2cc([N+](=O)[O-])ccc21 |
| 191 | Cc1ccc(C(=O)C2=NOC3C(=O)N(c4cc(Cl)ccc4Cl)C(=O)C23)cc1 (configuration not stated) |
| 126 to 127 | O=C(O)[C@H](Cc1ccccc1)NC(=O)C(F)(F)F |
| 112 to 113 | CC(=O)Nc1ccccc1C(=O)CCl |
| 173 to 175 | COc1ccc(C2CC(c3ccc4ccccc4c3)=NN2C(N)=O)cc1 (configuration not stated) |
| 196 | O=C(O)C1CC1C(=O)Nc1ccc(Cl)cc1Cl (configuration not stated) |
| 150 to 152 | O=Cc1cccn1-c1cc(Cl)cc(Cl)c1 |
| 197 to 198 | NC(=O)NN=C(O)/C=C/c1ccccc1 |
| 169 to 173 | Oc1cccc2[nH]c3ccccc3c12 |
| 178 to 181 | O=C(O)c1ccc(C(=O)C(F)(F)F)cc1 |
| 230 to 235 | CC1(C)C(=O)OC2=C(CC3C4CC=C5CC(O)CCC5(C)C4CCC23C)C1c1ccccc1 (configuration not stated) |
| 222 to 223 | Cc1ccc2sc(C(=O)O)cc2c1 |
| 37.5 | CCCNC(C)C(=O)Nc1ccccc1C (configuration not stated) |
| 246 | NC(=O)NN=CC(=O)c1ccc(C(=O)C=NNC(N)=O)cc1 |
| 209 | O=C(C1=NOC2C(=O)N(c3ccccc3[N+](=O)[O-])C(=O)C12)c1ccco1 (configuration not stated) |
| 64 to 65 | CC1CCC(C(C)C)C(OC(=O)/C(=C/c2ccccc2)Cc2ccccc2)C1 (configuration not stated) |
| 192 to 195 | CC(NC(=O)COCCN1C(=O)c2ccccc2C1=O)C(=O)NC(CCC(=O)O)C(=O)O (configuration not stated) |
| 228 to 230 | O=C(Nc1ccc(Br)cc1Br)C(C(F)(F)F)(C(F)(F)F)C(F)(F)F |

The next lines start with the molecule.

| SMILES | melting point [°C] |
| --- | --- |
| O=C(Cc1ccccc1)OCc1c([N+](=O)[O-])cccc1[N+](=O)[O-] | 90 |
| FC(F)(F)C(F)(F)C(F)(F)C(F)(F)C(F)(F)C(F)(F)C(F)(F)C(F)(F)C(F)(F)C(F)(F)C(F)(F)C(F)(F)I | 99 to 101 |
| O=C1CSCC(=O)O1 | 94 to 97 |
| CSc1ccc([N+](=O)[O-])cc1 | 65 to 68 |
| CNCC(=O)O | 208 |
| Cn1nc(-c2ccco2)cc1CO | 83 to 85 |
| CCc1cccc(O)c1 | -4 |
| O=[N+]([O-])c1ccc(C(Br)C(Br)c2ccc(C(Br)C(Br)c3ccc([N+](=O)[O-])cc3[N+](=O)[O-])cc2)c([N+](=O)[O-])c1 (configuration not stated) | 265 |
| O=C1CCc2cc(Cl)ccc21 | 94 |
| CC1(C)CCC2(C)CC=C3C(C)(CCC4C3(C)CCC3C(C)(C)C(O)CCC43C)C2C1 (configuration not stated) | 284 |
| CSC(C)(C)C=NO | 21 |
| CC1CCC2C(C)(C)C3CC12CCC3(C)O (configuration not stated) | 86 |
| Cc1nc(C=O)cs1 | 56 to 58 |
| Clc1cccc2c(Cl)cccc12 | 107 |
| CCCCCCCCCCCCCC(CCCCCCCCCCCC)CCCCCCCCCCCC | 13.7 |
| O=Cc1c(F)ccc(F)c1Cl | 47 |
| O=C=NS(=O)(=O)Cl | -44 |
| O=C1COc2ccc(S(=O)(=O)Cl)cc2N1 | 178 |
| CCO[C@H]1OC(C(N)=O)=CC[C@H]1Br | 141 to 142 |
| Cc1ccc2nc(C(F)(F)F)cc(Cl)c2c1[N+](=O)[O-] | 119 to 121 |
| Cc1ccc(CO)c(C)c1 | 22 |
| CCOC(=O)C(Cl)Cc1cc(-n2nc(C)n(C(F)F)c2=O)c(F)cc1Cl (configuration not stated) | -22.1 |
| CSc1sc(C#N)c2c1C(=O)CC(C)(C)C2 | 169 to 171 |
| CCCCCCCCCCCCCCCCCCC(=O)NC | 91 to 94 |

| SMILES | melting point [°C] |
| --- | --- |
| O=C(CCCN1CCC(n2c(=O)[nH]c3ccccc32)CC1)c1ccc(F)cc1 | 170 |
| O=C(O)c1cc(F)cc(C(F)(F)F)c1 | 104 to 108 |
| Cc1cccc(C(=O)Cl)c1C | 2 |
| Nc1ccccc1Cl | -3 |
| C=Cc1c(C)cc(C)cc1C | -37 |
| N#CC(F)(Cl)Cl | -110 |
| CCCC(C)CC(C)O (configuration not stated) | -102 |
| CCC1N(O)C(C)(C)C(C(=O)O)=[N+]1[O-] (configuration not stated) | 98.8 to 99 |
| S=C(NC1CCCCC1)C(=S)NC1CCCCC1 | 150 to 152 |
| CC(C)C(C)(C)Cl | -10 |
| Cc1cc(C)c(O)c(C(=O)CC2CC(=O)NC(=O)C2)c1 | 201 |
| COc1cc(C=O)ccc1OC1OC(CO)C(O)C(O)C1O (configuration not stated) | 189 |
| CC(=O)OC1CCC2(C)C3CCC4(C)C(C(C)CCCC(C)C)CCC4C3CC(OC(C)=O)C2(O)C1 (configuration not stated) | 164 |
| CSc1nccc(-c2ccc(S(=O)(=O)Cl)s2)n1 | 129 to 131 |
| CN(C)C(=S)SC(=S)N(C)C | 106 to 110 |
| ClCc1nc(-c2ccc(Cl)cc2)no1 | 60 to 61 |
| Nc1ccc(F)cc1O | 138 |
| CC1(C)C=C(C(N)=O)C(C)(C)N1O | 198 to 200 |
| COc1ccc(F)c(O)c1F | 75 |
| COc1cc2ccc(=O)oc2cc1OC | 146 |
| CC(C)Nc1nc(Cl)nc(NC(C)C)n1 | 213 |
| OC1CCC(O)CC1 (configuration not stated) | 143 |
| N#CCCCCCN | -31.4 |
| Nc1ccc(Br)c([N+](=O)[O-])c1 | 128 to 132 |

| SMILES | melting point [°C] |
| --- | --- |
| Oc1ccc(F)nc1 | 152 |
| CC(/C=N/NC(N)=O)=N\NC(N)=O | 255 |
| COc1cc(C)nc(-n2nc(C)cc2OC)n1 | 91 |
| CC(=O)Nc1ccc(Cl)cc1C | 136 to 138 |
| COc1nc(Cl)nc(OC)n1 | 77 |
| CCC1(c2ccccc2)C(=O)N(COC)C(=O)N(COC)C1=O | 117 |
| Cc1ccc(C=NO)cc1 | 126 |
| Cn1ccnc1CO | 107 to 111 |
| CC(=O)OC1CCC2(C)C(=CC(=O)C3C2CCC2(C)C(OCc4ccccc4)CCC32)C1 (configuration not stated) | 203 |
| COC1CCCCCCCCCCC1 | 8 |
| C1CCC(CCCCC2CCCCC2)CC1 | 12 |
| ClC1=C(Cl)C2(Cl)C(CBr)CC1(Cl)C2(Cl)Cl (configuration not stated) | 77 |
| CCOC(=O)C(Br)C(=O)OCC | -54 |
| O=C(O)/C=C/Cl | 82 |
| ON=C(NN=C(Cl)C(F)(F)F)C(F)(F)F | 119 |
| Nc1ccc(Cl)nc1Cl | 122 to 123 |
| COc1ccc(C(C)=O)cc1[N+](=O)[O-] | 98 |
| CC12CCC3C(C(=O)CC4CC(O)CCC43C)C1CCC2=O (configuration not stated) | 199 to 200 |
| O=[N+]([O-])c1ccc(O)cc1F | 92 to 95 |
| NC(=S)c1cccc(Cl)c1 | 110 to 113 |
| CC(=O)c1ccc(C)cc1O | 21 |
| CCC(CC)C(N)CC(=O)O (configuration not stated) | 213 to 214 |
